Data published in patent US7354918B2, “Derivatives of 14.15-dihydro 20.21-dinoreburnamenin-14-ol and applications thereof” (Biocortech, priority 2004, dated 2008).

Legend:
[1] = test system: tyrosine hydroxylase (TH) in the Locus Caeruleus (LC); experiment: TH protein content in the locus caeruleus, direct transfer of brain sections on nitrocellulose, quantitative immunochemistry; format: in vivo, Balb/c mice; settings: for Quantity of TH measured in the LC: single dose 20 mg/kg i.p., sacrificed three days after injection, average±sem on the entire structure, percent of the average value of the corresponding control group
Balb/c variety = experiment: Tail Suspension Test (TST); format: in vivo, Balb/c mice; settings: 6-minute period, vehicle 180
Protocol: The behavioural activity test, the Tail Suspension Test (TST) validated by antidepressants (Ref. 7) in the Balb/c variety, was also done for the molecule in the preferred example (Ie1b) at a dose of 1 mg/kg i.p. The experiment given as an example was carried out three days after a single injection and the effect was compared with the effect of imipramine (30 mg/kg i.p. 30 minutes before the test) (see Table 4 below).
The results are the average for n animals.

[2] = test system: cells expressing hypocretins in the lateral hypothalamus; experiment: Distribution of cells expressing hypocretins in the lateral hypothalamus by immunocytochemistry; format: in vivo, Balb/c mice; settings: single dose 20 mg/kg i.p.
Protocol: This property is shared with its direct synthesis precursor, the compound with formula (1). Table 3 below illustrates this type of result the two chemical entities:
The distribution of cells expressing hypocretins in the lateral hypothalamus is studied here with posterior—anterior sampling in consecutive 80 μm thick intervals. The cells are identified by immunocytochemistry using specific antibodies. The two molecules studied were administered by i.p. method with a single dose of 20 mg/kg. The animals were sacrificed three days after injection. A population of about a hundred supernumerary cells is thus identified at the posterior third of the cerebral core.

[3] = Biodistribution study (brain, liver) after i.p. and oral administration; format: in vivo; settings: for share of the cerebral concentration: 45 minutes after p.o. administration of (Ie1) 60 mg/kg
[4] = test system: cells containing TH in the LC; experiment: Number of TH immunopositive cells in the LC by immunohistochemistry; format: in vivo, Balb/c mice
Protocol: The number of immunopositive cells for TH is determined starting from coronal brain sections fixed by immunohistochemistry using the same anatomic sampling.
The results in FIG. 2 show the posterior-anterior distribution of the number of cells containing TH in the LC determined by immunohistochemistry obtained in a control group of Balb/c mice and in a group of mice treated by the molecule with formula (Ie1). Each bar represents the average obtained in each 80 μm anatomic interval in each experimental group±sem. **** indicates p<0.0001 determined by an ANOVA II (treatment factor). […] In the entire structure, the average values found were equal to 996±1 and 1250±58 in the control group and in the treated group respectively. (Administered dose 20 mg/kg i.p. sequential treatment at D0, D3, D6, D9 and D12, animals sacrificed at D16).
This phenomenon may be stabilised by an appropriate sequential treatment (for example: one 20 mg/kg i.p. injection every 3 days for 15 days, see FIG. 2). Under these conditions, the increase in the number of positive supernumerary TH cells that appeared in the LC is still maintained for 24 days after the treatment stopped.

[5] = test system: positive TH fibres of the prefrontal cortex; experiment: Positive TH (noradrenergic) fibres in the prefrontal cortex by immunocytochemistry; format: in vivo, Balb/c mouse; settings: 5 i.p. injections 20 mg/kg every three days, sacrificed three days after the last injection
From the text: The results in FIG. 3 show the distribution of positive TH fibres on a prefrontal cortex sample of the Balb/c mouse. At left: in a control mouse, the typical orientation (parallel to the surface of the cortex) of noradrenergic fibres identified using an immunocytochemical reaction related to the presence of TH protein, is noticed in the molecular layer of the prefrontal cortex. […] The animals were sacrificed three days after the last injection. The dashed lines mark the limit of the molecular layer of the prefrontal cortex.

[6] = test system: voltage dependent Na channels; experiment: Receptorial profile in vitro on 74 receptors and channels; format: binding; settings: concentration of 10 micromoles
[7] = test system: voltage dependent K channels; experiment: as above; format: binding; settings: concentration of 10 micromoles
[8] = test system: voltage dependent Ca channels; experiment: as above; format: binding; settings: concentration of 10 micromoles
SK+Ca channels = experiment: as above; format: binding; settings: concentration of 10 micromoles
[9] = test system: catecholamine transport systems; experiment: as above; format: binding; settings: concentration of 10 micromoles
M1 receptors = biological target: T1, M1 receptors (Homo sapiens, UniProt P11229); experiment: as above; format: binding; settings: concentration of 10 micromoles
T1 sequence (P11229 1-460): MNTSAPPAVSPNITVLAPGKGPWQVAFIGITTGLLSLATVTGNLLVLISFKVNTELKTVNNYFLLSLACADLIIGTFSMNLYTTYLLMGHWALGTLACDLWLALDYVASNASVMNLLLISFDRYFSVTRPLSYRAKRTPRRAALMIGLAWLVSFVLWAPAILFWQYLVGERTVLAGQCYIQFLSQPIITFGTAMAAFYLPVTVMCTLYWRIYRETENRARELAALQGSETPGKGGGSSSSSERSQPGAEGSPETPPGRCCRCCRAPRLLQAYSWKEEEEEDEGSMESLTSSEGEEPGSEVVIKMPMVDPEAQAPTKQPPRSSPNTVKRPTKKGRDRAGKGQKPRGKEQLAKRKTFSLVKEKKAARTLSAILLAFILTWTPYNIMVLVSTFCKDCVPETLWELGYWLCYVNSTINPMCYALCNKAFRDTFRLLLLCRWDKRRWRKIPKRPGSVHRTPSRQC

5HT5A receptors = 5HT5A receptors (Homo sapiens, UniProt P47898); experiment: as above; format: binding; settings: concentration of 10 micromoles
Chain of 5HT5A receptors (P47898 whole entry): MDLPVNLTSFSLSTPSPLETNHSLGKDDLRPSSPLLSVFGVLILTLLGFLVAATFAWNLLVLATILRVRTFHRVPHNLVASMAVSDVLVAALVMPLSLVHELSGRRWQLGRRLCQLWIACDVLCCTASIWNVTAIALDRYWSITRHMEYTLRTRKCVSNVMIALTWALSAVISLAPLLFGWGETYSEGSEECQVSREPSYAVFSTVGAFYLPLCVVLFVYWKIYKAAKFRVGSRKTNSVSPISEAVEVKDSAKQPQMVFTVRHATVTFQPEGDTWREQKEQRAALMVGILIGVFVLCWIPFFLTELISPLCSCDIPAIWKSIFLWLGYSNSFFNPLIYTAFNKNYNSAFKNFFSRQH

[10] = Interval 1 (80 μm, posterior-anterior), sacrificed three days after injection
[11] = Interval 2, three days after injection
[12] = Interval 3, three days after injection
[13] = Interval 4, three days after injection
[14] = Interval 5, three days after injection
[15] = Interval 6, three days after injection
[16] = Interval 7, three days after injection
[17] = Interval 8, three days after injection
[18] = Interval 9, three days after injection
[19] = Interval 10, three days after injection
[20] = Interval 11, three days after injection
[21] = Sum of intervals 1-11, three days after injection

Compound: c1ccc(COC2C[C@@H]3CCCN4CCc5c(n2c2ccccc52)[C@@H]34)cc1 (mixture of isomers) [Compound (Id), (±) (3β, 16α) 14,15-dihydro 14-benzyloxy 20,21-dinoreburnamenin]
- Quantity of TH measured in the LC [1]: 129 ± 5%

Compound: CCOC(=O)COC1C[C@@H]2CCCN3CCc4c(n1c1ccccc41)[C@@H]23 (mixture of isomers) [(Ia1), (±) (16α) 14,15-dihydro 14-ethoxycarbonylmethoxy-20,21-dinoreburnamenin]
- Quantity of TH measured in the LC [1]: 151 ± 5%

Compound: C1=Cn2c3c(c4ccccc42)CCN2CCC[C@@H]1[C@H]32 [(Ij1)]
- Quantity of TH measured in the LC [1]: 123 ± 2%

Compound: 14,15-dihydro 14-(2-morpholin-4-yl-ethoxy) 20,21-dinoreburnamenin [(Ie1b)]
- activity relative to the other enantiomer (Ie1a) ([1]; mouse, in vivo): twice as active
- Average immobilisation time (Balb/c variety; 1 mg/kg i.p., three days after a single injection): 130 s

Compound: OC1C[C@H]2CCCN3CCc4c(n1c1ccccc41)[C@@H]23 (stereo partly drawn) [Compound (1), 14,15 dihydro-20,21-dinoreburnamenin14-ol, reference compound]
- Quantity of TH measured in the LC [1]: 120 ± 4%
- Number of cells expressing hypocretins [2, 10]: 60.357
- Number of cells expressing hypocretins [2, 11]: 116.369
- Number of cells expressing hypocretins [2, 12]: 177.209
- Number of cells expressing hypocretins [2, 13]: 317.237
- Number of cells expressing hypocretins [2, 14]: 367.454
- Number of cells expressing hypocretins [2, 15]: 377.594
- Number of cells expressing hypocretins [2, 16]: 365.523
- Number of cells expressing hypocretins [2, 17]: 236.600
- Number of cells expressing hypocretins [2, 18]: 136.166
- Number of cells expressing hypocretins [2, 19]: 60.840
- Number of cells expressing hypocretins [2, 20]: 23.177
- Number of cells expressing hypocretins [2, 21]: 2238.526
- presence of the substance after i.p. administration of compound (Ie1) ([3]; 45 minutes after i.p. administration of (Ie1) 20 mg/kg): undetectable
- share of the cerebral concentration [3]: 11%

Compound: Cc1noc(COC2C[C@@H]3CCCN4CCc5c(n2c2ccccc52)[C@@H]34)n1 (mixture of isomers) [(Ig1), (±) (3β, 16α) 14,15-dihydro 14-(3-methyl-[1,2,4]oxadiazol-5-ylmethoxy) 20,21-dinoreburnamenin]
- Quantity of TH measured in the LC [1]: 118 ± 3%

Compound: CN(C)CCCN1c2ccccc2CCc2ccccc21 [Imipramine, imipramine, reference compound]
- Average immobilisation time (Balb/c variety; 30 mg/kg i.p. 30 minutes before the test): 70 s

Compound: c1ccc2c(c1)c1c3n2[C@H](OCCN2CCOCC2)C[C@@H]2CCCN(CC1)[C@@H]32 (racemic) [Compound (Ie1), 14,15-dihydro 14-(2-morpholin-4-yl-ethoxy) 20,21-dinoreburnamenin]
- 50% effective dose (DE50) ([1]; intra-peritoneal (i.p.) method): 0.5 mg/kg
- activity relative to direct synthesis precursor with formula (1) ([1]; mouse, in vivo): 30 times
- activity by mouth ([1]; oral): active by mouth
- 50% effective dose (DE50) ([1]; oral (p.o.) method): 1.5 mg/kg
- Quantity of TH measured in the LC [1]: 138 ± 4%
- number of cells containing TH in the LC, entire structure (average) ([4]; 20 mg/kg i.p. sequential treatment at D0, D3, D6, D9 and D12, sacrificed at D16, control group 996±1): 1250±58
- time for which the increase in positive supernumerary TH cells in the LC is maintained after the treatment stopped ([4]; one 20 mg/kg i.p. injection every 3 days for 15 days): 24 days
- density of noradrenergic fibres in the prefrontal cortex [5]: very significant increase
- Number of cells expressing hypocretins [2, 10]: 31.9
- Number of cells expressing hypocretins [2, 11]: 63.7
- Number of cells expressing hypocretins [2, 12]: 125.1
- Number of cells expressing hypocretins [2, 13]: 210.5
- Number of cells expressing hypocretins [2, 14]: 331.7
- Number of cells expressing hypocretins [2, 15]: 369.9
- Number of cells expressing hypocretins [2, 16]: 388.7
- Number of cells expressing hypocretins [2, 17]: 322.5
- Number of cells expressing hypocretins [2, 18]: 216.3
- Number of cells expressing hypocretins [2, 19]: 104.8
- Number of cells expressing hypocretins [2, 20]: 56.0
- Number of cells expressing hypocretins [2, 21]: 2221.1
- interaction with voltage dependent Na channels [6]: no interaction
- interaction with voltage dependent K channels [7]: no interaction
- interaction with voltage dependent Ca channels [8]: no interaction
- interaction with SK+Ca channels (SK+Ca channels): no interaction
- interaction with catecholamine transport systems [9]: no interaction
- affinity for M1 receptors (M1 receptors): moderate affinity link may be suspected
- affinity for 5HT5A receptors (5HT5A receptors): moderate affinity link may be suspected
- cerebral concentration/hepatic concentration ratio ([3]; 45 minutes after i.p. administration, 20 mg/kg): 0.41
- cerebral concentration/hepatic concentration ratio ([3]; 45 minutes after os administration, 60 mg/kg): 0.49
- share of the cerebral concentration [3]: 89%

Compound: O=C(COC1CC2CCCN3CCc4c(n1c1ccccc41)C23)NCCN1CCOCC1 (racemic) [Compound (If1), (±) (3β, 16α) 14,15-dihydro 14-[(2-morpholin-4-yl-ethylcarbamoyl)-methoxy]20,21-dinoreburnamenin]
- increase of the total TH content in the LC ([1]; FIG. 1, 3 days after a single i.p. injection (20 mg/kg), versus control mice): 13±3%
- Quantity of TH measured in the LC [1]: 113 ± 4%
